Data published in ChEMBL document CHEMBL1201862, “PubChem BioAssay data set” (2004).
The source made the active and inactive calls.

Columns and labels:
[1] = biological target: Cytochrome P450 2C9 (Homo sapiens, UniProt P11712)
[2] = biological target: DNA dC->dU-editing enzyme APOBEC-3A (Homo sapiens, UniProt P31941); test: Dose Response confirmation of small molecule APOBEC3A DNA Deaminase Inhibitors via a fluorescence-based single-stranded DNA deaminase assay. [Related pubchem assays (depositor defined):AID493011, AID493024]; type: functional
Chain of DNA dC->dU-editing enzyme APOBEC-3A (P31941 whole entry): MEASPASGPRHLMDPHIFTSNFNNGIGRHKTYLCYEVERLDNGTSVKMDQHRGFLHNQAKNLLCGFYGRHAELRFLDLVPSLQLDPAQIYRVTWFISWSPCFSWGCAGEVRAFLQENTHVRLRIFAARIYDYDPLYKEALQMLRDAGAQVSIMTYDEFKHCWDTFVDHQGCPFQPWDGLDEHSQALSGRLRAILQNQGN

[3] = biological target: DNA dC->dU-editing enzyme APOBEC-3G (Homo sapiens, UniProt Q9HC16); type: functional;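 further: Dose-response counterscreen measuring inhibition of APOBEC3G DNA deaminase activity, run while confirming APOBEC3A inhibitors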
Chain of DNA dC->dU-editing enzyme APOBEC-3G (Q9HC16 whole entry): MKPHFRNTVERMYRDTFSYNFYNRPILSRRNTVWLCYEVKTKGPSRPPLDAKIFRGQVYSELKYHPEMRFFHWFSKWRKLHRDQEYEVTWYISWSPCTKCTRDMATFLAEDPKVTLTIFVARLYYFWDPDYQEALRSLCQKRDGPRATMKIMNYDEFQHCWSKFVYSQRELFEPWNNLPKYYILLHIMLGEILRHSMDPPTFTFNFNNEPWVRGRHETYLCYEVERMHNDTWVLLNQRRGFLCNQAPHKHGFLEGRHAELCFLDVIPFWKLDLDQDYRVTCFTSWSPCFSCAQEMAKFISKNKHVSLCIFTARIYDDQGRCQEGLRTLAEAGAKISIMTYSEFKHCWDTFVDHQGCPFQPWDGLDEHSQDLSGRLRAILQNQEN

[4] = biological target: T1, Heat shock factor protein 1 (Mus musculus, UniProt P38532); test: HSF1 potentiators in luciferase reporter cells, confirmation, cell-based, NIH3T3, luminescence, dose retest (AID 435004); type: functional;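 further: stress induced by proteasome inhibitor MG132 added 30 min after compound; luciferase reporter driven by HSF1 response element in NIH3T3 cells; actives raise luminescence as potentiators of the MG132 stress response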
T1 sequence (P38532 whole entry): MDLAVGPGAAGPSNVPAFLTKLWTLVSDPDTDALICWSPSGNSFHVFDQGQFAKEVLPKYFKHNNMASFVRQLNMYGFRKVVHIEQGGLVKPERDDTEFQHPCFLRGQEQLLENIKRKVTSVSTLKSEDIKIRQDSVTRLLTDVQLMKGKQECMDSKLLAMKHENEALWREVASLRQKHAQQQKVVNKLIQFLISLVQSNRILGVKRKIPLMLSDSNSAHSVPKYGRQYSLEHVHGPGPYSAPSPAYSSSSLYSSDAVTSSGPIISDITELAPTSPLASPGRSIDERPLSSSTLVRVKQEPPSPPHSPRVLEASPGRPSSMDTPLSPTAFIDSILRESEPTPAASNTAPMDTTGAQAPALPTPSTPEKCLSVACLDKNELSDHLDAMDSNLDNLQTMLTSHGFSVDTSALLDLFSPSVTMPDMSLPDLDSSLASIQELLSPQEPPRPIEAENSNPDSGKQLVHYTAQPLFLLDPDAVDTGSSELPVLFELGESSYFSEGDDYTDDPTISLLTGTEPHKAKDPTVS

[5] = test system: Vero; test: cells; type: functional; settings: Chlorocebus sabaeus
[6] = test system: H9c2; test: cells; type: functional, cell-based; settings: Rattus norvegicus, H9c2, Myocardium;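 further: confirmatory concentration-response retest of ultra-high-throughput screening hits for modulation of myocardial damage; cell death induced by hydrogen peroxide oxidative stress; compound pretreatment for 60 min then peroxide exposure for 2 h; potency is for protecting the cells against peroxide damage rather than for killing them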
[7] = biological target: Cytochrome P450 2C19 (Homo sapiens, UniProt P33261); test: Cytochrome panel assay with activity outcomes. Panel member name: p450-cyp2c19 Compounds with AC50 equal or less than 10 uM are considered active; type: functional; settings: read-out: AC50
Chain of Cytochrome P450 2C19 (P33261 whole entry): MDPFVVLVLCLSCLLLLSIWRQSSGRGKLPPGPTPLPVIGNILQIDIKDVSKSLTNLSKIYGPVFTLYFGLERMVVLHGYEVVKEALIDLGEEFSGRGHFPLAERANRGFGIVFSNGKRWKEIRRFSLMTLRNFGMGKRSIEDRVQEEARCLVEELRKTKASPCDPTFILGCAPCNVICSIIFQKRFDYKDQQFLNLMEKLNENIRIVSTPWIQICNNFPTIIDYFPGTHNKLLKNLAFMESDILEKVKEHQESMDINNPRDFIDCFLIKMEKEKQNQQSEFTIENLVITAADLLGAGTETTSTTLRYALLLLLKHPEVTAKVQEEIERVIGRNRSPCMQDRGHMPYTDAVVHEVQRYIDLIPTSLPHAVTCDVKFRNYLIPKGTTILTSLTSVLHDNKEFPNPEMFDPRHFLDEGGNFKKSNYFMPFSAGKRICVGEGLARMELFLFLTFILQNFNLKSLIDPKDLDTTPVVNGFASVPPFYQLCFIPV

[8] = intracellular Trypanosoma cruzi inhibitors in host cells – cell-based, plate reader, cherry-pick samples, set 3, dose response (AID 651818); type: functional;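 further: compounds incubated with infected cells for about four days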

Chain of Cytochrome P450 2C9 (P11712 whole entry): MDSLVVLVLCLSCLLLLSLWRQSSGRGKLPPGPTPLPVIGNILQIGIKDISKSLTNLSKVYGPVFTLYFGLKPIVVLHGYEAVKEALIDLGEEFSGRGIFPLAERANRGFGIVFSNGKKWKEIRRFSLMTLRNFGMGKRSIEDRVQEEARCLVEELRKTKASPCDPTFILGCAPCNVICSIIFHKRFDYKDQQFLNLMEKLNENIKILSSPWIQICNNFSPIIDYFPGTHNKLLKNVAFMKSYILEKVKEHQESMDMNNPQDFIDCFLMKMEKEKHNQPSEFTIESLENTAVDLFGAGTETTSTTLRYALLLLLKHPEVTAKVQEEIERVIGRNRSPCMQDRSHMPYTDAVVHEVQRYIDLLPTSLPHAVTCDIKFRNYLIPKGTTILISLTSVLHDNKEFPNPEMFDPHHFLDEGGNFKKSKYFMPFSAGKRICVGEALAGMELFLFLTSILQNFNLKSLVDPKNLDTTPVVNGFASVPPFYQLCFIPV

In the case of `O=C(O)CCCC[C@H]1CCSS1`, the AC50 [1] was “inconclusive”.
For `COc1cc(Nc2cccc[n+]2C)cc(OC)c1OC`, the IC50 [2] was 3.48 µM (active) and the IC50 [3] was 2.85 µM (active).
For `Cc1cccc(C)c1OCC(=O)NCc1nnc(SCC(=O)NC2CCCCC2C)n1C` (configuration not stated), the EC50 [4] was > 260 µM (inactive), the IC50 [2] was 2.78 µM (active) and the IC50 [3] was 6.2 µM (active).
For `COc1cccc(C2=CC(c3cc(OC)ccc3OC)n3nnnc3N2)c1` (configuration not stated), the CC50 [5] was 14.4 µM (active).
In the case of `CCOC(=O)c1c(NC(=O)CSc2c[nH]c3ccccc23)sc2c1CCCC2`, the CC50 [5] was > 25 µM (active).
For `N#C/C(=C\c1c[nH]nc1-c1ccccc1)C(=O)NC1CCCCCC1`, the AC50 [1] was “inconclusive”.
With `COCCN1Cc2cccc(C(=O)Nc3cccc(-c4nc5ccccc5[nH]4)c3)c2C1=O` the CC50 [5] was > 25 µM (active) and the IC50 [6] was > 79 µM (inactive).
In the case of `CCN1C(NCCCCO)=N[C@@H](c2cccc(C(F)(F)F)c2)C(C(=O)OC)=C1C`, the IC50 [2] was 2.59 µM (active) and the IC50 [3] was 2.44 µM (active).
In the case of `CC[C@]12C=CCN3CCC4(c5cc(Br)c(OC)cc5N(C)C4[C@@](O)(C(=O)OC)[C@@H]1OC(C)=O)C32` (some centres not stated), the IC50 [2] was 2.14 µM (active) and the IC50 [3] was 1.81 µM (active).
For `CCN(CC)S(=O)(=O)c1cc(C(=O)OC)ccc1Cl`, the AC50 [1] was “inconclusive”.
In the case of `O=C1OCc2cccc3cccc1c23`, the AC50 [7] was 39.8 µM (inconclusive) and the AC50 [1] was “inconclusive”.
For `C=CCN1C(=O)/C(=C/c2ccc3c(c2)CCCN3CCC)C(=O)NC1=S`, the CC50 [5] was 18.3 µM (active).
In the case of `CC[N+](C)(CC)CC(=O)OCC1C(C)C=C(C)CC1C` (configuration not stated), the IC50 [2] was 1.31 µM (active) and the IC50 [3] was 2.04 µM (active).
For `Cc1c(C(=O)Nc2ccc(OCc3ccccc3)cc2)cccc1[N+](=O)[O-]`, the AC50 [1] was “inconclusive”.
For `O=C(NCCOc1ccccc1)c1nc[nH]n1`, the IC50 [2] was 6.18 µM (active) and the IC50 [3] was 18.7 µM (active).
With `Cc1[nH]c(=O)c(C(=O)/C=C/c2ccccc2F)c2c1CCCC2` the AC50 [1] was “inconclusive”.
With `CN1CCC(N(C)S(=O)(=O)c2ccc(NC(=O)c3ccc(S(=O)(=O)N(C)C)cc3)cc2)CC1` the IC50 [2] was 13.9 µM (active) and the IC50 [3] was 16 µM (active).
With `CCN(CC)CCNC(=O)c1ccc(NC(=O)C2CC(=O)N(c3ccc4c(c3)OCCO4)C2)cc1` (configuration not stated) the IC50 [2] was 7.53 µM (active) and the IC50 [3] was 8.16 µM (active).
With `C=CC[C@@H](CC(=O)N(CCO)Cc1ccccc1)C(=O)N[C@@H](COC(=O)[C@@H](CC=C)Cc1ccc(F)cc1)Cc1c[nH]c2ccccc12` the CC50 [5] was 18 µM (active).
With `COc1ccc(S(=O)(=O)Nc2ccc3c(c2)CC(=O)N([C@H](C)CO)C[C@@H](C)[C@@H](CN(C)Cc2ccc(Oc4ccccc4)cc2)O3)cc1` the AC50 [8] was 2.26 µM (active).
With `C[C@H]1CN([C@@H](C)CO)C(=O)c2cc(NC(=O)Nc3ccc(F)cc3)ccc2O[C@H]1CN(C)Cc1ccc(-c2ccccc2)cc1` the AC50 [8] was 3.74 µM (active).
In the case of `C[C@@H]1CN([C@@H](C)CO)C(=O)c2cc(NS(=O)(=O)c3ccc(F)cc3)ccc2O[C@H]1CN(C)Cc1ccc(C(=O)Nc2ccccc2N)cc1`, the AC50 [8] was 3.6 µM (active).
With `C[C@H]1CN([C@@H](C)CO)C(=O)c2cc(NC(=O)Cc3cn(C)c4ccccc34)ccc2O[C@H]1CN(C)Cc1ccc(Oc2ccccc2)cc1` the AC50 [8] was 6.34 µM (active).
For `C[C@H]1CN([C@@H](C)CO)C(=O)c2cc(NC(=O)Nc3ccc(C(F)(F)F)cc3)ccc2O[C@@H]1CN(C)Cc1ccc2c(c1)OCO2`, the AC50 [8] was 4.02 µM (active).
With `CC(C)C(NC(=O)c1ccc2c(c1)OCO2)C(=O)N/N=C\c1ccco1` (configuration not stated) the IC50 [2] was > 100 µM (inactive) and the IC50 [3] was 15.9 µM (active).
